Patent publication US20220204473A1, “COMPOUND AS IRAK INHIBITOR” (SHANGHAI MEIYUE BIOTECH DEVELOPMENT CO., LTD., priority 2018, published 2022)

Experiments:
[1] = tested on: TNF-α release in LPS-induced Balb/c female mice; assay: Inhibition of TNF-α release in LPS-induced Balb/c female mice; assay type: in vivo, mouse; parameters: concentration or dose not given beside the values; details: oral gavage 5 h before LPS induction, serum 1.5 h after stimulation
Description: In the normal control groups, the animals received an intraperitoneal injection of normal saline (10 mL/kg) and in the model groups, the animals received LPS stimulation (Sigma CAT #L2630, i.p., 10 mL/kg, 0.2 mg/kg). During the assay, to the test compounds, DMSO, Solutol and 10 mM PBS were sequentially added to prepare a solution or suspension of required concentration for administration. For the vehicle, DMSO, Solutol and 10 mM PBS were mixed in a volume ratio of 5:15:80. In each of the groups, the animals were administered through oral gavage (10 mL/kg) 5 h before LPS (or saline) stimulation at predetermined doses, and euthanized with CO2 at 1.5 h after the stimulation for cardiac blood collection. The whole blood was not anticoagulated, incubated in wet ice for 1.5 h, and centrifuged at 2000×g at 4° C. for 10 min to separate the serum. The serum was frozen at −80° C. for TNF-α assay. Quantification of the TNF-α was done with TNF-α ELISA kit according to the manufacturer's instruction.

human IRAK4 = target: T1, human IRAK4 (Homo sapiens, UniProt Q9NWZ3); assay: IRAK4 MSA (Mobility-Shift Assay) at Km ATP; assay type: biochemical; details: GST-IRAK4 1 nM, ATP 37 μM (Km); read-out: IC50 for inhibiting human IRAK4 kinase
T1 construct: purchased Cama (so in the source)
T1 sequence (Q9NWZ3 1-460): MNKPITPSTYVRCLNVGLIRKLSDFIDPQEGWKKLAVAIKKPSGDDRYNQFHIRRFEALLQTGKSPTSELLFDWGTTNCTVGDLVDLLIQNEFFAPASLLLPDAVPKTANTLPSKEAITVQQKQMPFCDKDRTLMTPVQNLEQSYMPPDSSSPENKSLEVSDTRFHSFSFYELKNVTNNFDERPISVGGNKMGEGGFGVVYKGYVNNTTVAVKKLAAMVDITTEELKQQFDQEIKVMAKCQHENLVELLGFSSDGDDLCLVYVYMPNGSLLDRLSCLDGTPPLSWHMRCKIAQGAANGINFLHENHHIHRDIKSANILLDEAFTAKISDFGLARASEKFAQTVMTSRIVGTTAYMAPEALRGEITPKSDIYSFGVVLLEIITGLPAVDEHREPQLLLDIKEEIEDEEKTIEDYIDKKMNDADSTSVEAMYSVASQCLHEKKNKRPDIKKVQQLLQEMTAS
Description: A recombinant fusion protein of N-terminal GST (glutathione-S-transferase) and human IRAK4 was used as enzyme (GST-IRAK4, kinase IRAK4 (Cama)) at a final concentration of 1 nM; ATP (Sigma) was at a final concentration of 37 μM; the substrates used for the kinase reaction were a 5-FAM (5-carboxyfluorescein)-labeled polypeptide (5-FAM-[…]-COOH) and a substrate peptide FAM-P8 (GL Biochem) at final concentrations of […].
In this assay, 500 μM solutions of the compounds were prepared in 100% DMSO, and serially 4-fold diluted to the 10th concentration gradient with 100% DMSO, followed by a 10-fold dilution in the compound buffer (50 mM HEPES. pH 7.5, 0.00015% Brij-35) to give intermediate dilutions of the compounds at a final concentration of 10 μM-0.04 nM containing 10% DMSO respectively, 5 μL of the dilutions were transferred into a black 384-well plate respectively.
IRAK4 was diluted to 2.5 nM in the kinase buffer (50 mM HEPES, pH 7.5, 0.00015% Brij-35, 2 mM DTT). 10 μL of the IRAK4 dilution was transferred to the 384-well plate and co-incubated with the compound for 10-15 min.
(§1) The substrate and ATP were diluted to 12.5 μM and 92.5 μM with reaction buffer (50 mM HEPES, pH 7.5, 0.00015% Brij-35, 10 mM MgCl2), respectively. 10 μL of the dilutions were transferred to a 384-well plate and incubated at 28° C. for 1 h respectively. The reaction was terminated by adding 25 μL of 50 mM EDTA to the 384-well plate.
The inhibition rates of IRAK4 by the compounds were calculated by measuring the rate of phosphorylated substrate using a Caliper EZ Reader (PerkinElmer) and the IC50 values were calculated by XL-fit software.

[2] = tested on: IL-6 release in LPS-induced Balb/c female mice; assay: Inhibition of IL-6 release in LPS-induced Balb/c female mice; assay type: in vivo, mouse; parameters: concentration or dose not given beside the values; details: administered 5 h before LPS induction, serum
Description: Objective of the test: To determine the inhibitory effect of the compounds by measuring the plasma IL-6 concentration in a Balb/c mouse model with LPS-induced inflammation.
2.1 Prepared mouse serum samples (sample batch no. 20181218)
4.1 Reagent kit was equilibrated at room temperature (25-28° C.) for 20 min. After each detection, the remaining reagents were stored at 4° C.
4.3 Preparing reference standard: 1 vial of reference standard substance was added with labeled volume of reference standard diluent. The mixtures were incubated for 15 min at room temperature. Then the mixtures were gently mixed to completely dissolve the substance to prepare a reference standard stock at a final concentration of 1000 μg/mL.
4.4 Dilution of samples: The sample in each group was diluted by […], i.e., a 2-fold dilution with sample assay buffer followed by another two-fold dilution with standard diluent.
4.5 The diluted samples or standards of different concentrations were added into corresponding wells at 100 μL/well respectively, and a background correcting well (or a blank well) was set by adding only TMB buffer and terminating solution. The wells were sealed with a transparent film and incubated at room temperature for 120 min.
4.6 The plate was subjected to 5 washes, each with 300 μL of washing buffer for 15-30 sec. The plate was dried on thick absorbent paper after the last wash.
4.7 Biotinylated antibody was added at 100 μL/well (Note: the biotinylated antibody was prepared in advance and could be used directly without further dilution). The wells were sealed with a transparent film and incubated at room temperature for 60 min.
4.8 The plate was subjected to 5 washes, each with 300 μL of washing buffer for 15-30 sec. The plate was dried on thick absorbent paper after the last wash.
4.9 Horseradish peroxidase-labeled streptavidin was added at 100 μL/well. The wells were sealed with a white film and incubated away from light at room temperature for 20 min.
4.10 The plate was subjected to 5 washes, each with 300 μL of washing buffer for 15-30 sec. The plate was dried on thick absorbent paper after the last wash.
4.11 The chromogenic reagent TMB was added 100 μL/well. The wells were sealed with a white film and incubated away from light at room temperature for 20 min.
4.12 The terminating solution was added at 50 μL/well and A450 value was measured right after mixing.

CYP2D6 = target: T2, CYP2D6 (Homo sapiens, UniProt P10635); assay: CYP450 inhibition in human liver microsomes, CYP2D6; assay type: in vitro ADME
T2 construct: tissue Corning (USA); host or cells: mixed human liver microsomes
T2 sequence (P10635 whole entry): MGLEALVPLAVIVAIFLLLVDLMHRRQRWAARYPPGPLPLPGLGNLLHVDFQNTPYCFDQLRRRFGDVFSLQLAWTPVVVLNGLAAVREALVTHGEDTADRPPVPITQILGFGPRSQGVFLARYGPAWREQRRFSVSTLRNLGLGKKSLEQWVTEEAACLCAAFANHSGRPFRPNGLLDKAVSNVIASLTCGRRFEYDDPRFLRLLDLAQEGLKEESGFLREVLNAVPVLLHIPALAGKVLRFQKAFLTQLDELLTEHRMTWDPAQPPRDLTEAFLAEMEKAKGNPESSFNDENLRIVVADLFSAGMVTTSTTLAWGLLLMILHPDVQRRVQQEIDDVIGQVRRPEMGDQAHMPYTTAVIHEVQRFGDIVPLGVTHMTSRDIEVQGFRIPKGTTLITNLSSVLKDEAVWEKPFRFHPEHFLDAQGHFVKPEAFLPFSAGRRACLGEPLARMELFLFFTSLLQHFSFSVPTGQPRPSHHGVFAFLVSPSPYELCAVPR
Description: (§2) This study was intended to investigate the inhibitory effect of the test compounds on five major CYP450 enzyme subtypes CYP1A2, 2C9, 2C19, 2D6 and 3A4 in human liver microsomes. The mixed human liver microsomes used in this assay were purchased from Corning (USA). The test compounds were co-incubated at 7 concentrations with human liver microsomes and five probe substrates (phenacetin for CYP1a2, diclofenac for CYP2C9, mephenytoin for CYP2C19, dextromethorphan for CYP2D6, midazolam for CYP3A4-M, mixed). The reaction was initiated by adding coenzyme NADPH, and terminated by adding acetonitrile containing internal standard. After the proteins were precipitated, the supernatant was centrifuged. The characteristic metabolites in the supernatant (acetaminophen for CYP1A2, 4-hydroxydiclofenac for CYP2C9, 4-hydroxymephenytoin for CYP2C19, dextrorphan for CYP2D6, 1-hydroxymidazolam for CYP3A4-M) were analyzed by LC-MS/MS. The influence of the test compounds on production of the characteristic metabolites was finally analyzed on the basis of the data obtained. A selective inhibitor (ketoconazole for CYP3A4-M) was used as positive control. All samples were tested in duplicate.

CYP1A2 = target: T3, CYP1A2 (Homo sapiens, UniProt P05177); assay: CYP450 inhibition in human liver microsomes, CYP1A2; assay type: in vitro ADME
T3 construct: tissue Corning (USA); host or cells: mixed human liver microsomes
T3 sequence (P05177 1-516): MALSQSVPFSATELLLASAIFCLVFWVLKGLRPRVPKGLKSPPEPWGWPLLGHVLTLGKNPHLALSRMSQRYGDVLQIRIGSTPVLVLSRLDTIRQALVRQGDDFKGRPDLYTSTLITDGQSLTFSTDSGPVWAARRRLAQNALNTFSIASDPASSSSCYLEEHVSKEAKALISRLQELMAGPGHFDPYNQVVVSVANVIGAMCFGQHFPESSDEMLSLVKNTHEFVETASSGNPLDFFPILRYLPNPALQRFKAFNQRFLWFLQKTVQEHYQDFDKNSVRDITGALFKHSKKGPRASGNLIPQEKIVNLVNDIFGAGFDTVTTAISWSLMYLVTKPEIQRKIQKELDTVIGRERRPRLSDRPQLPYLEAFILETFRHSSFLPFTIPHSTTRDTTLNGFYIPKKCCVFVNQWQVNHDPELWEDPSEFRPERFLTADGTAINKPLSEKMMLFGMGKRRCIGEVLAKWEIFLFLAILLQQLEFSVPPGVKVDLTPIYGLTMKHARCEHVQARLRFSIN
Description: as §2

CYP3A4 = target: T4, CYP3A4 (Homo sapiens, UniProt P08684); assay: CYP450 inhibition in human liver microsomes, CYP3A4; assay type: in vitro ADME
T4 construct: tissue Corning (USA); host or cells: mixed human liver microsomes
T4 sequence (P08684 whole entry): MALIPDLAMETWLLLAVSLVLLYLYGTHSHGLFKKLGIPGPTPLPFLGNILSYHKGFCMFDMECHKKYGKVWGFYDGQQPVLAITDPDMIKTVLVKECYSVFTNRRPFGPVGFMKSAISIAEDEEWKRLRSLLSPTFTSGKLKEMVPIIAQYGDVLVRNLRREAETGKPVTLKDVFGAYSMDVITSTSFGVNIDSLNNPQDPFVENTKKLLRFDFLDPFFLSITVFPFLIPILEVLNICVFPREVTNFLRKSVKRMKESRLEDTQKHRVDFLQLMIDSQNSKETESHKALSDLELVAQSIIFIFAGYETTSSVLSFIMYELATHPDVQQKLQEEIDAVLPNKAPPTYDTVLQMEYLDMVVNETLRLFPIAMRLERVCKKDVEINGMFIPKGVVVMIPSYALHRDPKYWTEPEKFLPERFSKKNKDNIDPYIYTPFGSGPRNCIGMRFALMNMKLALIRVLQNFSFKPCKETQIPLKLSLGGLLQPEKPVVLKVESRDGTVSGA
Description: as §2

CYP2C19 = target: T5, CYP2C19 (Homo sapiens, UniProt P33261); assay: CYP450 inhibition in human liver microsomes, CYP2C19; assay type: in vitro ADME
T5 construct: tissue Corning (USA); host or cells: mixed human liver microsomes
T5 sequence (P33261 whole entry): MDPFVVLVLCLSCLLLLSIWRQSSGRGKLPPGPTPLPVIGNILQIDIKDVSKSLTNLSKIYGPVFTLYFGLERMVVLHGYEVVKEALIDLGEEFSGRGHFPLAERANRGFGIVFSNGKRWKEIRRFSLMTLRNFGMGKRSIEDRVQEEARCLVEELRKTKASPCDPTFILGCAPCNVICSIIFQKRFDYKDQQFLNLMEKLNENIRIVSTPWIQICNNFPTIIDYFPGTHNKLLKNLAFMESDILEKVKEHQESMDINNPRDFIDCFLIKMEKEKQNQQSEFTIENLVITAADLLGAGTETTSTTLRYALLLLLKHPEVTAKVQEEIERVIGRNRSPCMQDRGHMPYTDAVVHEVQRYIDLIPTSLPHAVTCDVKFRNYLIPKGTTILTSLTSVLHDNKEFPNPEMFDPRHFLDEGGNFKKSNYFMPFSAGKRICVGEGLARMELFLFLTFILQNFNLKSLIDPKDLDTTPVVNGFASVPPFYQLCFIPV
Description: as §2

CYP2C9 = target: T6, CYP2C9 (Homo sapiens, UniProt P11712); assay: CYP450 inhibition in human liver microsomes, CYP2C9; assay type: in vitro ADME
T6 construct: tissue Corning (USA); host or cells: mixed human liver microsomes
T6 sequence (P11712 whole entry): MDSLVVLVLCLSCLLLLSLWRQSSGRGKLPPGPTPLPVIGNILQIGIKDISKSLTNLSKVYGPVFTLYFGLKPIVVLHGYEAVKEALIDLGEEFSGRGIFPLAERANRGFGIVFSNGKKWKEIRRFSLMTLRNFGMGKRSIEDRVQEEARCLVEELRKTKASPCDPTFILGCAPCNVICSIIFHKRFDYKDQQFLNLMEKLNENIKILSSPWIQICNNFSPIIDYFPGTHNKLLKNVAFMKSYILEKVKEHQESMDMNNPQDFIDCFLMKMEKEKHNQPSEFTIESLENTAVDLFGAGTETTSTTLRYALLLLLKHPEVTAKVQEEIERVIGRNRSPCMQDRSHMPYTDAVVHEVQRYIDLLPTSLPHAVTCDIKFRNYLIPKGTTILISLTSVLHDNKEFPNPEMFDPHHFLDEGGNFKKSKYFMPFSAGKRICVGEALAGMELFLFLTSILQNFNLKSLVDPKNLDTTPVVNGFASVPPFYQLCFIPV
Description: as §2

human IRAK1 = target: T7, human IRAK1 (Homo sapiens, UniProt P51617); assay: IRAK1 MSA (Mobility-Shift Assay) at Km ATP; assay type: biochemical
T7 construct: purchased Cama (so in the source)
T7 sequence (P51617 whole entry): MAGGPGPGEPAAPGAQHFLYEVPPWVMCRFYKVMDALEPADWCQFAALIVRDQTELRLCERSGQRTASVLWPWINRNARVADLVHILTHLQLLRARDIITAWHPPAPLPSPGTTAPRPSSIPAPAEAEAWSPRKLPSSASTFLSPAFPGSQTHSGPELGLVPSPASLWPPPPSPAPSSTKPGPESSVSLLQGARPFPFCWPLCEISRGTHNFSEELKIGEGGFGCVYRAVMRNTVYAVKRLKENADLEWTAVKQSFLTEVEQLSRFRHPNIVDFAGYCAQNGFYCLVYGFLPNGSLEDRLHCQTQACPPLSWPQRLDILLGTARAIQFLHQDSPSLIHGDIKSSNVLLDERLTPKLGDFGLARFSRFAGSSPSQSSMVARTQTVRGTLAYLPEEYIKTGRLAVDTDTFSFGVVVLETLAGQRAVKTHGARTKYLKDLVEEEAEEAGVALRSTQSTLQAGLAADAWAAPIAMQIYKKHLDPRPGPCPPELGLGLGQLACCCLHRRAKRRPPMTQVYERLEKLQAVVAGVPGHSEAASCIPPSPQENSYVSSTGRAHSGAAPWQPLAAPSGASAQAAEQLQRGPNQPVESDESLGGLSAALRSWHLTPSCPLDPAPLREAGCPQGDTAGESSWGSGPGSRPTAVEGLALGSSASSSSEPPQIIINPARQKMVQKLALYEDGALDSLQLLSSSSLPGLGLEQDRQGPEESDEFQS
Description: 5 μL of the intermediate dilutions were transferred into a black 384-well plate.
IRAK1 was diluted to 7.5 nM in the kinase buffer (50 mM HEPES, pH 7.5, 0.00015% Brij-35, 2 mM DTT). 10 μL of the IRAK1 dilution was transferred to the 384-well plate and co-incubated with the compound for 10-15 min.
as §1, with “and 242.5” for “and 92.5”, “dilutions was” for “dilutions were”, “1 h.” for “1 h respectively.”
The inhibition rates of IRAK1 by the compounds were calculated by measuring the rate of phosphorylated substrate using a Caliper EZ Reader (PerkinElmer) and the IC50 values were calculated by XL-fit software.

Row | IC50 (human IRAK4) [µM] | IC50 (CYP2D6) [µM] | IC50 (CYP1A2) [µM] | IC50 (CYP3A4) [µM] | IC50 (CYP2C19) [µM] | IC50 (CYP2C9) [µM] | IC50 (human IRAK1) [µM] | IC50 (IRAK1)/IC50 (IRAK4) (human IRAK1; selectivity for IRAK4) | SMILES | Inhibition rate of TNF-α [1] [%] | Inhibition rate of IL-6 [2] [%]
1 | 0.002 |  |  |  |  |  |  |  | COc1cc2nn([C@H]3C[C@H](C(C)(C)O)C3)cc2cc1NC(=O)c1cccc(C(F)F)n1 [MY-004-115] | 89.59 | 93.35
2 |  | > 30 | 2.91 | > 30 | 23.5 | 19.1 |  |  | CC(C)(O)CCn1cc2cc(NC(=O)c3cccc(C(F)(F)F)n3)c(C(C)(C)O)cc2n1 [MYA, reference compound] |  | 
3 | 0.0058 |  |  |  |  |  | 4.32 | 745 | CC(C)(O)c1cc2nn([C@H]3C[C@H](C(C)(C)O)C3)cc2cc1NC(=O)c1cccc(C(F)(F)F)n1 [MY-004-109] |  | 
